Reference: publication PMC10480608 (Heliyon, 2023)

Legend:
[1] = test system: MCF-7 (human breast adenocarcinoma); assay: MTT cytotoxicity assay, MCF-7; type: cell-based; settings: Homo sapiens, MCF7, 72 h, read-out: IC50 ± SD, MCF7
[2] = test system: HepG2 (hepatocellular carcinoma); assay: MTT cytotoxicity assay, HepG2; type: cell-based, human; settings: Homo sapiens, HepG2, 72 h, read-out: IC50 ± SD, HEPG-2
[3] = test system: PC3 (human prostate carcinoma); assay: MTT cytotoxicity assay, PC3; type: cell-based; settings: 72 h, read-out: IC50 ± SD, PC-3
[4] = test system: normal human dermal/fibroblasts; assay: MTT cytotoxicity assay, normal fibroblasts; type: cell-based; settings: Homo sapiens, Fibroblast, 72 h, read-out: IC50 ± SD, Fibro dental
[5] = test system: MDA-231 breast cancer cells; assay: MTT cytotoxicity assay, MDA-231; type: cell-based, human; settings: Homo sapiens, MDA-MB-231, read-out: IC50 ± SD, MDA-231
[6] = test system: DU145 prostate cancer cells; assay: MTT cytotoxicity assay, DU145; type: cell-based, human; settings: Homo sapiens, DU-145, read-out: IC50 ± SD, DU145

Compound | IC50 [1] | IC50 [2] | IC50 [3] | IC50 [4] | IC50 [5] | IC50 [6]
Cc1nc([N+](=O)[O-])cn1Cc1ccccc1 [Compound 2, N1-benzyl-2-methyl-4-nitroimidazole] | 68 ± 20 µM | – | – | – | – | –
Cc1nc([N+](=O)[O-])c(Br)n1Cc1ccccc1 [Compound 3, 5-bromo-N1-benzyl-2-methyl-4-nitroimidazole] | – | > 500 µM | > 500 µM | > 500 µM | – | –
C#CCN1CCN(c2c([N+](=O)[O-])nc(C)n2Cc2ccccc2)CC1 [Compound 5, 1-(N1-benzyl-2-methyl-4-nitro-imidazole-5-yl)-4-(prop-2-yn-1-yl)piperazine] | 84 ± 2 µM | – | – | > 500 µM | – | –
Cc1nc([N+](=O)[O-])c(N2CCN(Cc3cn(Cc4ccccc4)nn3)CC2)n1Cc1ccccc1 [Compound 9a, 1-((N1-benzyl-1H-1,2,3-triazol-4-yl)methyl)-4-(N1-benzyl-2-methyl-4-nitro-imidazole-5-yl)piperazine] | 55 ± 40 µM | – | – | > 500 µM | – | –
Cc1nc([N+](=O)[O-])c(N2CCN(Cc3cn(Cc4ccc(Br)cc4)nn3)CC2)n1Cc1ccccc1 [Compound 9b, 1-(N1-benzyl-2-methyl-4-nitro-imidazole-5-yl)-4-((N1-(4-bromobenzyl)-1H-1,2,3-triazol-4-yl)methyl)piperazine] | 79 ± 21 µM | – | – | > 500 µM | – | –
Cc1nc([N+](=O)[O-])c(N2CCN(Cc3cn(Cc4ccc(F)cc4)nn3)CC2)n1Cc1ccccc1 [Compound 9c, 1-(N1-benzyl-2-methyl-4-nitro-imidazole-5-yl)-4-((N1-(4-fluorobenzyl)-1H-1,2,3-triazol-4-yl)methyl)piperazine] | 24 ± 1.9 µM | > 500 µM | > 500 µM | > 500 µM | – | –
Cc1nc([N+](=O)[O-])c(N2CCN(Cc3cn(Cc4cccc([N+](=O)[O-])c4)nn3)CC2)n1Cc1ccccc1 [Compound 9d, 1-(N1-benzyl-2-methyl-4-nitro-imidazole-5-yl)-4-((N1-(3-nitrobenzyl)-1H-1,2,3-triazol-4-yl)methyl)piperazine] | 40 ± 15 µM | – | – | – | – | –
Cc1cccc(Cn2cc(CN3CCN(c4c([N+](=O)[O-])nc(C)n4Cc4ccccc4)CC3)nn2)c1 [Compound 9e, 1-(N1-benzyl-2-methyl-4-nitro-imidazole-5-yl)-4-((N1-(3-methylbenzyl)-1H-1,2,3-triazol-4-yl)methyl)piperazine] | 79 ± 21 µM | > 500 µM | > 500 µM | > 500 µM | – | –
Cc1nc([N+](=O)[O-])c(N2CCN(Cc3cn(Cc4cccc(Br)c4)nn3)CC2)n1Cc1ccccc1 [Compound 9f, 1-(N1-benzyl-2-methyl-4-nitro-imidazole-5-yl)-4-((N1-(3-bromobenzyl)-1H-1,2,3-triazol-4-yl)methyl)piperazine] | 53 ± 60 µM | – | – | – | – | –
Cc1nc([N+](=O)[O-])c(N2CCN(Cc3cn(Cc4ccccc4[N+](=O)[O-])nn3)CC2)n1Cc1ccccc1 [Compound 9h, 1-(N1-benzyl-2-methyl-4-nitro-imidazole-5-yl)-4-((N1-(2-nitrobenzyl)-1H-1,2,3-triazol-4-yl)methyl)piperazine] | 48 ± 4 µM | – | – | > 500 µM | – | –
Cc1nc([N+](=O)[O-])c(N2CCN(Cc3cn(Cc4ccccc4Br)nn3)CC2)n1Cc1ccccc1 [Compound 9i, 1-(N1-benzyl-2-methyl-4-nitro-imidazole-5-yl)-4-((N1-(2-bromobenzyl)-1H-1,2,3-triazol-4-yl)methyl)piperazine] | 106 ± 12.3 µM | > 500 µM | > 500 µM | > 500 µM | – | –
Cc1nc([N+](=O)[O-])c(N2CCN(Cc3cn(Cc4ccccc4F)nn3)CC2)n1Cc1ccccc1 [Compound 9j, 1-(N1-benzyl-2-methyl-4-nitro-imidazole-5-yl)-4-((N1-(2-fluorobenzyl)-1H-1,2,3-triazol-4-yl)methyl)piperazine] | 151 ± 20 µM | > 500 µM | > 500 µM | > 500 µM | – | –
Cc1nc([N+](=O)[O-])c(N2CCN(Cc3cn(CC(=O)c4ccccc4)nn3)CC2)n1Cc1ccccc1 [Compound 10a, 2-(4-((4-(1-benzyl-2-methyl-4-nitro-1H-imidazole-5-yl)piperazin-1-yl)methyl)-1H-1,2,3-triazol-1-yl)-1-phenylethanone] | 112 ± 30 µM | – | – | – | 1.15 ± 0.5 µM | 3.16 ± 0.03 µM
Cc1cccc(-n2cc(CN3CCN(c4c([N+](=O)[O-])nc(C)n4Cc4ccccc4)CC3)nn2)c1 [Compound 11 m, 1-(N1-benzyl-2-methyl-4-nitro-1H-imidazole-5-yl)-4-((N1-(m-tolyl)-1H-1,2,3-triazol-4-yl)methyl)piperazine] | 161 ± 16 µM | > 500 µM | > 500 µM | > 500 µM | – | –
Cc1nc([N+](=O)[O-])c(N2CCN(Cc3cn(-c4ccc(Br)cc4)nn3)CC2)n1Cc1ccccc1 [Compound 11a, 1-(N1-benzyl-2-methyl-4-nitro-1H-imidazole-5-yl)-4-((N1-(4-bromophenyl)-1H-1,2,3-triazol-4-yl)methyl)piperazine] | – | > 500 µM | > 500 µM | > 500 µM | – | –
CSc1ccccc1-n1cc(CN2CCN(c3c([N+](=O)[O-])nc(C)n3Cc3ccccc3)CC2)nn1 [Compound 11b, 1-(N1-benzyl-2-methyl-4-nitro-1H-imidazole-5-yl)-4-((N1-(2-(methylthio)phenyl)-1H-1,2,3-triazol-4-yl)methyl)piperazine] | 136 ± 60 µM | – | – | – | – | –
CCOc1ccccc1-n1cc(CN2CCN(c3c([N+](=O)[O-])nc(C)n3Cc3ccccc3)CC2)nn1 [Compound 11c, 1-(N1-benzyl-2-methyl-4-nitro-1H-imidazole-5-yl)-4-((N1-(2-ethoxyphenyl)-1H-1,2,3-triazol-4-yl)methyl)piperazine] | 399 ± 79 µM | – | – | – | – | –
Cc1nc([N+](=O)[O-])c(N2CCN(Cc3cn(-c4ccccc4)nn3)CC2)n1Cc1ccccc1 [Compound 11d, 1-(N1-benzyl-2-methyl-4-nitro-1H-imidazole-5-yl)-4-((N1-phenyl-1H-1,2,3-triazol-4-yl)methyl)piperazine] | 312 ± 65 µM | – | – | – | – | –
Cc1ccc(-n2cc(CN3CCN(c4c([N+](=O)[O-])nc(C)n4Cc4ccccc4)CC3)nn2)cc1 [Compound 11e, 1-(N1-benzyl-2-methyl-4-nitro-1H-imidazole-5-yl)-4-((N1-(p-tolyl)-1H-1,2,3-triazol-4-yl)methyl)piperazine] | 219 ± 12 µM | – | – | – | – | –
COc1ccc(-n2cc(CN3CCN(c4c([N+](=O)[O-])nc(C)n4Cc4ccccc4)CC3)nn2)cc1 [Compound 11f, 1-(N1-benzyl-2-methyl-4-nitro-1H-imidazole-5-yl)-4-((N1-(4-methoxyphenyl)-1H-1,2,3-triazol-4-yl)methyl)piperazine] | 251 ± 71 µM | – | – | > 500 µM | – | –
Cc1ccccc1-n1cc(CN2CCN(c3c([N+](=O)[O-])nc(C)n3Cc3ccccc3)CC2)nn1 [Compound 11g, 1-(N1-benzyl-2-methyl-4-nitro-1H-imidazole-5-yl)-4-((N1-(o-tolyl)-1H-1,2,3-triazol-4-yl)methyl)piperazine] | 183 ± 10 µM | – | – | – | – | –
CCc1ccccc1-n1cc(CN2CCN(c3c([N+](=O)[O-])nc(C)n3Cc3ccccc3)CC2)nn1 [Compound 11h, 1-(N1-benzyl-2-methyl-4-nitro-1H-imidazole-5-yl)-4-((N1-(2-ethylphenyl)-1H-1,2,3-triazol-4-yl)methyl)piperazine] | 88 ± 37 µM | – | – | – | – | –
Cc1nc([N+](=O)[O-])c(N2CCN(Cc3cn(-c4ccccc4[N+](=O)[O-])nn3)CC2)n1Cc1ccccc1 [Compound 11i, 1-(N1-benzyl-2-methyl-4-nitro-1H-imidazole-5-yl)-4-((N1-(2-nitrophenyl)-1H-1,2,3-triazol-4-yl)methyl)piperazine] | 185 ± 33 µM | – | – | > 500 µM | – | –
Cc1nc([N+](=O)[O-])c(N2CCN(Cc3cn(-c4ccc(Cl)cc4)nn3)CC2)n1Cc1ccccc1 [Compound 11j, 1-(N1-benzyl-2-methyl-4-nitro-1H-imidazole-5-yl)-4-((N1-(4-chlorophenyl)-1H-1,2,3-triazol-4-yl)methyl)piperazine] | 279 ± 20 µM | > 500 µM | > 500 µM | > 500 µM | – | –
Cc1nc([N+](=O)[O-])c(N2CCN(Cc3cn(-c4ccc([N+](=O)[O-])cc4)nn3)CC2)n1Cc1ccccc1 [Compound 11k, 1-(N1-benzyl-2-methyl-4-nitro-1H-imidazole-5-yl)-4-((N1-(4-nitrophenyl)-1H-1,2,3-triazol-4-yl)methyl)piperazine] | 671 ± 140 µM | – | – | – | – | –
COc1cccc(-n2cc(CN3CCN(c4c([N+](=O)[O-])nc(C)n4Cc4ccccc4)CC3)nn2)c1 [Compound 11l, 1-(N1-benzyl-2-methyl-4-nitro-1H-imidazole-5-yl)-4-((N1-(3-methoxyphenyl)-1H-1,2,3-triazol-4-yl)methyl)piperazine] | 198 ± 10 µM | – | – | – | – | –
Cc1nc([N+](=O)[O-])c(N2CCN(Cc3cn(-c4cccc(Cl)c4)nn3)CC2)n1Cc1ccccc1 [Compound 11n, 1-(N1-benzyl-2-methyl-4-nitro-1H-imidazole-5-yl)-4-((N1-(3-chlorophenyl)-1H-1,2,3-triazol-4-yl)methyl)piperazine] | 155 ± 70 µM | – | – | > 500 µM | – | –
Cc1nc([N+](=O)[O-])c(N2CCN(Cc3cn(-c4cccc5c4CCCC5)nn3)CC2)n1Cc1ccccc1 [Compound 11o, 1-(N1-benzyl-2-methyl-4-nitro-1H-imidazole-5-yl)-4-((N1-(5,6,7,8-tetrahydronaphthalen-1-yl)-1H-1,2,3-triazol-4-yl)methyl)piperazine] | 131 ± 30 µM | – | > 500 µM | > 500 µM | – | –
Cc1nc([N+](=O)[O-])c(N2CCN(Cc3cn(-c4cccc5ccccc45)nn3)CC2)n1Cc1ccccc1 [Compound 11q, 1-(N1-benzyl-2-methyl-4-nitro-1H-imidazole-5-yl)-4-((N1-(naphthalen-1-yl)-1H-1,2,3-triazol-4-yl)methyl)piperazine] | 270 ± 40 µM | – | – | – | – | –
